35 molecules from US20230183179A1, “NOVEL CELL METABOLISM MODULATING COMPOUNDS AND USES THEREOF” (CRESCENTA BIOSCIENCES, priority 2020, published 2023) can be followed below.

In assay [1] the test system is differentiated 3T3-L1 mouse adipocyte cells. Kind of assay: Adipocyte glucose consumption in differentiated 3T3-L1 cells (colorimetric glucose assay of the medium). It counts as cell-based. As to conditions: 3T3-L1, 24 h, compound 10 μM, loss of glucose from culture medium, mean fold change (compound/DMSO). The procedure, abridged:
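Differentiated 3T3-L1 mouse adipocytes (rosiglitazone/dexamethasone/IBMX/insulin induction, day 11) treated 24 h with compounds at 10 μM, 0.1% DMSO final. Medium glucose measured colorimetrically; consumption taken as glucose loss from medium versus cell-free control, expressed as mean fold change compound/DMSO ±SD.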

Assay [2] deals with T1, His6 tagged human recombinant FABP4 (Homo sapiens, UniProt P15090).
T1 construct: purchased Cayman Chemicals 10009549
Kind of assay: FABP4 TR-FRET assay: displacement of fluorescent fatty acid BODIPY FL C12. As to conditions: inhibition of BODIPY FL C12 binding to His6-FABP4; 1.2 μL of 1.085 mM compound in DMSO per well; triplicates, mean percent inhibition. The procedure, abridged:
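TR-FRET displacement of BODIPY FL C12 from His6-FABP4 bound by Tb-anti-His6 antibody, in Tris pH 7.4 buffer with γ-globulins, NP-40 and DTT; compound stock 1.085 mM in DMSO. Read after 10 min at room temperature as 520/615 nm ratio; mean % inhibition versus DMSO from triplicates.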
Background: In TR-FRET formats the signal depends on donor and acceptor labels being close together.

Where only a bound is given, the exact number is not on record here.

T1 sequence (P15090 whole entry): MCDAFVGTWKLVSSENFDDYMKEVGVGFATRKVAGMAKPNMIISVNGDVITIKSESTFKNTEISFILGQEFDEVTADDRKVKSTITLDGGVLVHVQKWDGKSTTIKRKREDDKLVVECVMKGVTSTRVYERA

Regarding `CCCCc1ccc2nc(N(C)CC(C)C(=O)O)cc(-c3ccc(F)cc3)c2c1` (stereo not shown) [3-{[6-butyl-4-(4-fluorophenyl)quinolin-2-yl](methyl)amino}-2-methylpropanoic acid], in assay [1], the fold induction (in general, the signal under treatment as a multiple of the control signal) at 10 µM turned out to be 1.34. In addition, the inhibition (in general, the relative decrease from the control value, in per cent) at 1085 µM (stock) in assay [2] was determined as 74%.
With `CN(CC(=O)O)c1cc(-c2ccccc2)c2cc(CCC3CNc4ccccc4N3)ccc2n1` (stereo not shown) [2-[methyl({4-phenyl-6-[2-(1,2,3,4-tetrahydroquinoxalin-2-yl)ethyl]quinolin-2-yl})amino]acetic acid], the fold induction at 10 µM in assay [1] is 1.26. In addition, in assay [2], the inhibition at 1085 µM (stock) came to 14.9%.
For `CCCCCCC1CCc2nc(N(C)CC(=O)O)cc(-c3ccccc3)c2C1` (stereo not shown) [2-[(6-hexyl-4-phenyl-5,6,7,8-tetrahydroquinolin-2-yl)(methyl)amino]acetic acid] the same measures were 1.34 and 64.5%.
Take `CN(CC(=O)O)c1cc(-c2ccccc2)c2cc(CCCc3ccccc3)ccc2n1` [2-{methyl[4-phenyl-6-(3-phenylpropyl)quinolin-2-yl]amino}acetic acid]: the fold induction at 10 µM in assay [1] worked out at 1.31. Also, the inhibition at 1085 µM (stock) in assay [2] was 97%.
`CCCCCCc1ccc2nc(N(C)CC(=O)O)c(C)c(-c3ccc(F)cc3)c2c1` [2-([4-(4-fluorophenyl)-6-hexyl-3-methylquinolin-2-yl](methyl)amino}acetic acid]: in assay [1], the fold induction at 10 µM amounted to 1.19. In assay [2], the inhibition at 1085 µM (stock) was 111%.
Consider `CCCCCCCCc1ccc2nc(N(C)CC(=O)O)cc(Oc3cccc(F)c3)c2c1` [2-{[4-(3-fluorophenoxy)-6-octylquinolin-2-yl](methyl)amino}acetic acid], for which the fold induction at 10 µM in assay [1] was found to be 1.32. The inhibition at 1085 µM (stock) in assay [2] was 74.6%.
In the case of `COc1ccccc1CCc1ccc2nc(N(C)CC(=O)O)cc(-c3ccccc3)c2c1` [2-({6-[2-(2-methoxyphenyl)ethyl]-4-phenylquinolin-2-yl}(methyl)amino)acetic acid], the fold induction at 10 µM in assay [1] amounted to 1.11. Moreover, the inhibition at 1085 µM (stock) in assay [2] turned out to be 65.1%.
For `CN(CC(=O)O)c1cc(-c2ccccc2)c2cc(Cl)ccc2n1` [2-[(6-chloro-4-phenylquinolin-2-yl)(methyl)amino]acetic acid] the same measures were 1.14 and 99.7%.
For `CCCCc1ccc2nc(OCC(=O)O)c(C(=O)O)c(-c3ccccc3)c2c1` [6-butyl-2-(carboxymethoxy)-4-phenylquinoline-3-carboxylic acid], in that order: 0.99 and 44.6%.
On to `CN(CC(=O)O)c1cc(-c2cccc(C#N)c2)c2cc(Br)ccc2n1` [2-{[6-bromo-4-(3-cyanophenyl)quinolin-2-yl](methyl)amino}acetic acid], for which, in assay [1], the fold induction at 10 µM is 1.16. Further, the inhibition at 1085 µM (stock) in assay [2] was found to be 91.1%.
Turning to `CCCCCCc1ccc2nc(N(C)CC(=O)O)c(C)c(N3CCOCC3)c2c1` [2-{[6-hexyl-3-methyl-4-(morpholin-4-yl)quinolin-2-yl](methyl)amino}acetic acid], the fold induction at 10 µM in assay [1] worked out at 1.17. Further, the inhibition at 1085 µM (stock) in assay [2] came out at 93.8%.
For `CN(CC(=O)O)c1cc(-c2ccccc2)c2cc(CCc3ncccn3)ccc2n1` [2-[methyl({4-phenyl-6-[2-(pyrimidin-2-yl)ethyl]quinolin-2-yl})amino]acetic acid], in that order: 1.35 and less than 0%.
For `COc1cccc(CCc2ccc3nc(N(C)CC(=O)O)cc(-c4ccccc4)c3c2)c1` [2-({6-[2-(3-methoxyphenyl)ethyl]-4-phenylquinolin-2-yl}(methyl)amino)acetic acid] the same measures were 1.31 and 93.2%.
For `CCCc1cccc(-c2ccc3nc(N(C)CC(=O)O)cc(-c4ccccc4)c3c2)c1` [2-{methyl[4-phenyl-6-(3-propylphenyl)quinolin-2-yl]amino}acetic acid] the same measures were 1.07 and 61.2%.
As to `CCCCc1ccc2nc(N(C)CC(=O)O)cc(-c3ccc(C#N)cc3)c2c1` [2-{[6-butyl-4-(4-cyanophenyl)quinolin-2-yl](methyl)amino}acetic acid], the fold induction at 10 µM in assay [1] worked out at 1.18. Also, the inhibition at 1085 µM (stock) in assay [2] came out at 16.8%.
For `CN(CC(=O)O)c1cc(-c2ccccc2)c2cc(CCc3ccc(Cl)cc3)ccc2n1` [2-({6-[2-(4-chlorophenyl)ethyl]-4-phenylquinolin-2-yl}(methyl)amino)acetic acid], in that order: 1.43 and 56.4%.
For `CCc1ccc2nc(OCC(=O)O)cc(-c3ccccc3)c2c1` [2-[(6-ethyl-4-phenylquinolin-2-yl)oxy]acetic acid] the same measures were 0.97 and 31.9%.
In the case of `CCCCCCc1ccc2nc(N(CCC)CC(=O)O)cc(-c3ccc(F)cc3)c2c1` [2-{[4-(4-fluorophenyl)-6-hexylquinolin-2-yl](propyl)amino}acetic acid], the fold induction at 10 µM in assay [1] turned out to be 1.13. Further, the inhibition at 1085 µM (stock) in assay [2] turned out to be 57.1%.
As to `Clc1ccc2nc(N3CCCCC3)cc(-c3ccccc3)c2c1` [6-chloro-4-phenyl-2-(piperidin-1-yl)quinoline], the fold induction at 10 µM in assay [1] came to 0.99. The inhibition at 1085 µM (stock) in assay [2] is 64.3%.
For `CN(CC(=O)O)c1cc(-c2ccccc2)c2cc(CCc3ccc4c(c3)CCCN4)ccc2n1` [2-[methyl({4-phenyl-6-[2-(1,2,3,4-tetrahydroquinolin-6-yl)ethyl]quinolin-2-yl})amino]acetic acid], in that order: 1.31 and 44.7%.
For `CCCCCCc1ccc2nc(N(C)C(C)CC(=O)O)cc(-c3cccc(C#N)c3)c2c1` (stereo not shown) [3-{[4-(3-cyanophenyl)-6-hexylquinolin-2-yl](methyl)amino}butanoic acid], in that order: 1.03 and 77.9%.
For `O=C(O)COc1cc(-c2ccccc2)c2cc(Br)ccc2n1` [2-[(6-bromo-4-phenylquinolin-2-yl)oxy]acetic acid] the same measures were 1.01 and 35%.
As to `CCCCCc1ccc2nc(OCC(=O)O)cc(-c3cccc(C(N)=O)c3)c2c1` [2-{[4-(3-carbamoylphenyl)-6-pentylquinolin-2-yl]oxy}acetic acid], the fold induction at 10 µM in assay [1] was determined as 1.02. For the same molecule, in assay [2], the inhibition at 1085 µM (stock) was 74.2%.
For `CCCCc1ccc2nc(N(C)CC(=O)O)cc(-c3ccncc3)c2c1` [2-{[6-butyl-4-(pyridin-4-yl)quinolin-2-yl](methyl)amino}acetic acid], in that order: 1.28 and 15%.
For `CCCCc1ccc2nc(N(C)CC(=O)O)cc(-c3cccc(C#N)c3)c2c1` [2-{[6-butyl-4-(3-cyanophenyl)quinolin-2-yl](methyl)amino}acetic acid] the same measures were 1.33 and 33.2%.
For `CCCCc1ccc2nc(OC(C)C(=O)O)cc(-c3cccc(C#N)c3)c2c1` (stereo not shown) [2-{[6-butyl-4-(3-cyanophenyl)quinolin-2-yl]oxy}propanoic acid] the same measures were 1.26 and 12.7%.
On to `CCCCc1ccc2nc(N3CCCC3C(=O)O)cc(-c3ccccc3)c2c1` (stereo not shown) [1-(6-butyl-4-phenylquinolin-2-yl)pyrrolidine-2-carboxylic acid], for which the fold induction at 10 µM in assay [1] was determined as 1.12. Moreover, in assay [2], the inhibition at 1085 µM (stock) was 92.5%.
For `CN(CC(=O)O)c1cc(-c2ccccc2)c2ccc(Br)cc2n1` [2-[(7-bromo-4-phenylquinolin-2-yl)(methyl)amino]acetic acid], in that order: 1.19 and 84.5%.
On to `COc1ccc2nc(N(C)CC(=O)O)cc(-c3ccccc3)c2c1` [2-[(6-methoxy-4-phenylquinolin-2-yl)(methyl)amino]acetic acid], for which, in assay [1], the fold induction at 10 µM turned out to be 1.12. In addition, the inhibition at 1085 µM (stock) in assay [2] was 101%.
As for `CC(C)(c1cc(-c2ccccc2)c2cc(CCc3ccccc3)ccc2n1)c1nnn[nH]1` [4-phenyl-6-(2-phenylethyl)-2-[2-(1H-1,2,3,4-tetrazol-5-yl)propan-2-yl]quinoline], in assay [1], the fold induction at 10 µM worked out at 1.2. Also, in assay [2], the inhibition at 1085 µM (stock) stood at 75%.
For `CCCCCCc1ccc2nc(N3CCCC(C(=O)O)C3)cc(-c3cccnc3)c2c1` (stereo not shown) [1-[6-hexyl-4-(pyridin-3-yl)quinolin-2-yl]piperidine-3-carboxylic acid], the fold induction at 10 µM in assay [1] turned out to be 1.09. Also, the inhibition at 1085 µM (stock) in assay [2] turned out to be 91.6%.
Regarding `CCCCCCCCc1ccc2nc(N(C)CC(=O)O)cc(Oc3cccnc3)c2c1` [2-{methyl [6-octyl-4-(pyridin-3-yloxy)quinolin-2-yl]amino}acetic acid], in assay [1], the fold induction at 10 µM was determined as 1.47. Further, the inhibition at 1085 µM (stock) in assay [2] was 83.6%.
For `CCCCCCc1ccc2nc(N(C)CC(=O)O)cc(Oc3ccncc3)c2c1` [2-{[6-hexyl-4-(pyridin-4-yloxy)quinolin-2-yl](methyl)amino}acetic acid], in assay [1], the fold induction at 10 µM was 1.02. Also, in assay [2], the inhibition at 1085 µM (stock) stood at 10.7%.
For `O=C(O)COc1cc(-c2ccccc2)c2cc(Cl)ccc2n1` [2-[(6-chloro-4-phenylquinolin-2-yl)oxy]acetic acid] the same measures were 1.1 and 34.4%.
Regarding `CCCCCCc1ccc2nc(N3CCC(C)(C(=O)O)C3)cc(-c3ccccc3)c2c1` (stereo not shown) [1-(6-hexyl-4-phenylquinolin-2-yl)-3-methylpyrrolidine-3-carboxylic acid], in assay [1], the fold induction at 10 µM is 1.36. In addition, the inhibition at 1085 µM (stock) in assay [2] was determined as 36.4%.
